The values that follow come from patent US10981896B2, “Indolinone derivatives as inhibitors of maternal embryonic leucine zipper kinase” (BOARD OF REGENTS, THE UNIVERSITY OF TEXAS SYSTEM, priority 2017, dated 2021).

“And” between values parts separate entries of the source, which are not always exact repeats. Equal values may be shown once.

The target in test [1] is AMPK (Rattus norvegicus (Rat), UniProt P54645). In words: Selectivity dose-response kinase assay, AMPK. Conditions: 100 μM ATP. Format: biochemical. An excerpt:
(§1) CHK1 and NUAK1 were purchased from SignalChem (Vancouver, BC). The NUAK2, CHK, and SAMS peptides were purchased from BioSyn (Lewisville, Tex.). The sequence of CHK and NUAK2 peptides are described elsewhere (Sanchez Y, et al. Science (New York, N.Y.). 1997; 277(5331):1497-1501; Scott J W, et al. Sci Rep. 2015; 5:14436). ERK2, AMPK, CAMKK2, and Ets1 were produced in house as previously described (Waas W F, Dalby K N. The Journal of biological chemistry. 2002; 277(15):12532-12540; Neumann D, et al. Protein Expr Purif. 2003; 30(2):230-237; Waas W F, Dalby K N. Protein Expr Purif. 2001; 23(1):191-197). Apparent KM values for ATP under specific assay conditions were determined using respective experimental conditions in Table 8 with varied ATP (0-1.28 mM). All selectivity dose-response assays were performed in kinase assay buffer (see Inhibitor Library Screen) with 2 mM DTT and 100 μM γ-^32P-ATP with additional conditions listed in Table 8. IC50 and KM^ATP values were subsequently used to calculate Ki (Equation 4). Relative selectivity was determined by comparing Ki^Enzyme/Ki^MELK (termed φ in Table 7). […] Standard error from linear regression data was propagated internally in Prism and taken into account in nonlinear regression to determine IC50 or Ki.

Test [2] concerns the target NUAK1 (Homo sapiens (Human), UniProt O60285). As to the kind of experiment: Selectivity dose-response kinase assay, NUAK1. Format: biochemical. Conditions: 100 μM ATP.
Excerpt: as §1

Test [3] has as its target CHK1 (Homo sapiens (Human), UniProt O14757). In words: Selectivity dose-response kinase assay, CHK1. Conditions: 100 μM ATP. Format: biochemical.
Excerpt: as §1

Test [4] concerns the target CAMKK2 (Homo sapiens (Human), UniProt Q96RR4). As to the kind of experiment: Selectivity dose-response kinase assay, CAMKK2. The format is biochemical. Conditions: 100 μM ATP.
Excerpt: as §1

Test [5] deals with ERK2 (Rattus norvegicus (Rat), UniProt P63086). In words: Selectivity dose-response kinase assay, ERK2. Format: biochemical. Conditions: 100 μM ATP.
Sequence of ERK2 (P63086 whole entry): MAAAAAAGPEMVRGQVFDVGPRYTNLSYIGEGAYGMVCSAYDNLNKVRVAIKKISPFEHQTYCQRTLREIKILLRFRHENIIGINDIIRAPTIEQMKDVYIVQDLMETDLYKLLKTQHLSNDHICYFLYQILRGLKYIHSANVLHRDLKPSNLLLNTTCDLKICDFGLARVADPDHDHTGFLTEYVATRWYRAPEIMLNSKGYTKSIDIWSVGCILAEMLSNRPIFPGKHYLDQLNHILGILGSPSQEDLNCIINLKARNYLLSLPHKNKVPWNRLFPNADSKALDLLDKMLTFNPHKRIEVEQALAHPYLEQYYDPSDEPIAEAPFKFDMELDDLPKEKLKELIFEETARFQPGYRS
Excerpt: as §1

Test [6] relates to HCC70 cells. As to the kind of experiment: Cell proliferation, CellTiter-Blue viability assay, HCC70. Format: cell-based, human. Conditions: 72 h after treatment. The text has this: (§2) HCC70, BT-549, and SUM159 human TNBC cell lines and MCF10A human breast epithelial cell line were purchased from American Type Culture Collection. The murine 4T1-Luc TNBC cells were purchased from PerkinElmer. HCC70, BT-549, and 4T1-Luc cells were maintained in RPMI 1640 medium (Life Technologies Inc., Grand Island, N.Y., USA) and MDA-MB-231-LM2 cells in Dulbecco's modified Eagle's medium/F12 medium (Life Technologies Inc., Grand Island, N.Y., USA), both types of medium supplemented with FBS (10%) and antibiotic/antimycotic (1%). SUM159 cells were maintained in Ham's F-12 medium (Life Technologies Inc., Grand Island, N.Y., USA) supplemented with FBS (5%), antibiotic/antimycotic (1%), insulin (5 μg/mL), and hydrocortisone (1 μg/mL). MCF10A cells were maintained in Dulbecco's modified Eagle's medium/F12 medium supplemented with horse serum (10%), antibiotic/antimycotic (1%), insulin (10 μg/mL), EGF (20 ng/mL), cholera toxin (100 ng/mL), and hydrocortisone (500 μg/mL). […]
(§3) Cell proliferation was determined using the CellTiter-Blue viability assay as described previously (Gloeckner H, et al. Journal of immunological methods. 2001; 252(1-2):131-138). […] At 72 h after MELK inhibitor treatment, optical density at 595 nm was determined.

The subject of test [7] is BT-549 cells. As to the kind of experiment: Cell proliferation, CellTiter-Blue viability assay, BT-549. Format: cell-based, human. Conditions: 72 h after treatment.
Excerpt: as §2, §3

Test [8] concerns SUM-159 cells. In words: Cell proliferation, CellTiter-Blue viability assay, SUM-159. Format: cell-based, human. Conditions: 72 h after treatment.
Excerpt: as §2, §3

Test [9] relates to MCF10A cells. In words: Cell proliferation, CellTiter-Blue viability assay, MCF10A. Format: cell-based, human. Conditions: 72 h after treatment. The text has this:
HCC70, BT-549, and SUM159 human TNBC cell lines and MCF10A human breast epithelial cell line were purchased from American Type Culture Collection. The murine 4T1-Luc TNBC cells were purchased from PerkinElmer. HCC70, BT-549, and 4T1-Luc cells were maintained in RPMI 1640 medium (Life Technologies Inc., Grand Island, N.Y., USA) and MDA-MB-231-LM2 cells in Dulbecco's modified Eagle's medium/F12 medium (Life Technologies Inc., Grand Island, N.Y., USA), both types of medium supplemented with FBS (10%) and antibiotic/antimycotic (1%). SUM159 cells were maintained in Ham's F-12 medium (Life Technologies Inc., Grand Island, N.Y., USA) supplemented with FBS (5%), antibiotic/antimycotic (1%), insulin (5 μg/mL), and hydrocortisone (1 μg/mL). MCF10A cells were maintained in Dulbecco's modified Eagle's medium/F12 medium supplemented with horse serum (10%), antibiotic/antimycotic (1%), insulin (10 μg/mL), EGF (20 ng/mL), cholera toxin (100 ng/mL), and hydrocortisone (500 μg/mL). All cell lines used in this study were validated by the Characterized Cell Line Core Facility at MD Anderson Cancer Center by using a short tandem repeat method based on primer extension to detect single base deviations.
Cell proliferation was determined using the CellTiter-Blue viability assay as described previously (Gloeckner H, et al. Journal of immunological methods. 2001; 252(1-2):131-138). Cells were seeded in 96-well plates and treated the next day with MELK inhibitors (0-20 μM). At 72 h after MELK inhibitor treatment, optical density at 595 nm was determined.

Test [10] deals with MELK (Homo sapiens (Human), UniProt Q14680). In words: MELK p81-based kinase assay, dose-response (IC50/Ki). The format is biochemical. On the procedure:
MELK and its substrate, Bcl-G were both recombinantly expressed and purified for use in screening assays (See Methods). […] 10 nM MELK 340 and 10 μM Bcl-GL in kinase assay buffer (50 mM HEPES pH 7.5, 100 mM KCl, 0.1 mM EDTA, 0.1 mM EGTA, 10 mM MgCl2, 10 μg/mL BSA) with 10 mM DTT were added to either 10 μM or 1 μM inhibitor aliquoted into 96 well plates (final 1% DMSO). The mixture was incubated at room temperature for 30 minutes prior to initiation of the assay with 40 μM γ-^32P-ATP (100-1000 CPM/pmol). 40 μL aliquots were spotted onto a p81 96 well filter plate (Unifilter, Whatman), quenched, and washed with 75 mM O-phosphoric acid 8 times, followed by a final wash with acetone for drying. Wells were then filled with scintillation fluid, sealed, and quantified using a MicroBeta TriLux liquid scintillation counter (PerkinElmer). Each inhibitor plate was assayed in duplicate, with at least 4 wells without MELK to establish background and at least 4 wells without inhibitor as a negative control. All readings were corrected for background signal based on the average counts from the wells without enzyme. Percent inhibition, defined as [100−(CPM+inhibitor/average CPM of positive controls)*100], was determined first at 10 μM inhibitor. The top 50 inhibitors were then re-screened in duplicate at 1 μM.
At set time points (0.25, 0.5, 1, 1.5, and 2 min for assays containing 10 nM MELK and 1, 2, 4, 6, and 10 min for assays containing 1 nM MELK), 30 μL aliquots were taken from each reaction and spotted onto 2×2 cm squares of p81 paper. Papers were washed 4 times in 75 mM O-phosphoric acid and once in acetone. Labeled protein was quantified by its associated CPM determined on a Packard 1500 scintillation counter at a sigma value of 2. CPM were translated into nmol ^32P incorporated using Equation 1.
Rates in the presence of each concentration of inhibitor were determined by plotting nmol ^32P incorporated vs. time. These rates were normalized to rates obtained without inhibitor, and data were plotted in terms of fractional activity. In most cases, data were fit to Equation 2. If the IC50 approached the amount of enzyme used in the assay, data were re-fit to the equation for tight-binding inhibitors (the Morrison equation, […]). […] Data were transformed as discussed and fit to Equation 3.
IC50 values were used to estimate each inhibitor's Ki using the Cheng-Prusoff relationship for competitive inhibitors (Equation 4).

Sequence of MELK (Q14680 1-340): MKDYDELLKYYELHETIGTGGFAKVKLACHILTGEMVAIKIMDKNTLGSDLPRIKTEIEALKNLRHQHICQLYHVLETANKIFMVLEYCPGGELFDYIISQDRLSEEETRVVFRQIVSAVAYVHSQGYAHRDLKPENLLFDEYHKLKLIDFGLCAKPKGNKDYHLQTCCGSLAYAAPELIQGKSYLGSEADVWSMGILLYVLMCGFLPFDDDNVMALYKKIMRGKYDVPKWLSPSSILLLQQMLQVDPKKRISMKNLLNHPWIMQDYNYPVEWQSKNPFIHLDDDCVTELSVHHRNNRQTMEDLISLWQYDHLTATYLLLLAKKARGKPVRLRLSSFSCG
Sequence of CHK1 (O14757 whole entry): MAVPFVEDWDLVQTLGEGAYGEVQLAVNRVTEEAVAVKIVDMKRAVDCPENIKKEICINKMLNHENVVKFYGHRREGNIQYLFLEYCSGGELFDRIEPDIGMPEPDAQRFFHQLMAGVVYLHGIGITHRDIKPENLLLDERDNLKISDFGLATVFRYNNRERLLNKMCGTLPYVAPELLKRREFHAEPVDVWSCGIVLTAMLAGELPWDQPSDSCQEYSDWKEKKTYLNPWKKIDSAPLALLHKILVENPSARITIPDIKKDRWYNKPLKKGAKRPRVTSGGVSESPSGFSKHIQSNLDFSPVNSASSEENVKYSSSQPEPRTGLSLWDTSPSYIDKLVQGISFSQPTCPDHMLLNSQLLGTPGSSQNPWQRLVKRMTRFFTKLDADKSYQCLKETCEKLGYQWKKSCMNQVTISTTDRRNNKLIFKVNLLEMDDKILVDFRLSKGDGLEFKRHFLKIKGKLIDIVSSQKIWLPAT
Sequence of NUAK1 (O60285 whole entry): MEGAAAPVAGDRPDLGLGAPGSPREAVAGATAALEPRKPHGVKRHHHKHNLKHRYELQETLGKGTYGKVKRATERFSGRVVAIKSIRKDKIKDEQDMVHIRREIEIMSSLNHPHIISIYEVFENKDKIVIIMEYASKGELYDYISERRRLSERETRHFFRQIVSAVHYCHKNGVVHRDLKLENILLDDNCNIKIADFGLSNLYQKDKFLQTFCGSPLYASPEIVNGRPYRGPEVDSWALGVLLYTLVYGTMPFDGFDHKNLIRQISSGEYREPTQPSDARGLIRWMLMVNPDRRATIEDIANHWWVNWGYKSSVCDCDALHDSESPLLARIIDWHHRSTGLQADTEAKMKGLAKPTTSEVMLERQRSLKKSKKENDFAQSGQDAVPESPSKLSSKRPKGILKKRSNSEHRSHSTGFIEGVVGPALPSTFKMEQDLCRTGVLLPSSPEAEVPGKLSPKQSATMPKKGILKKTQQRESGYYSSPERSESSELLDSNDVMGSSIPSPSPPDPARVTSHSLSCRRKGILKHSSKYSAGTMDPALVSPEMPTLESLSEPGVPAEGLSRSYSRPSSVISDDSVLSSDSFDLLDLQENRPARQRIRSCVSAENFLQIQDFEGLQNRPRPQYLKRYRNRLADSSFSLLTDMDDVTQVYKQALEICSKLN
Sequence of CAMKK2 (Q96RR4 whole entry, species assumed): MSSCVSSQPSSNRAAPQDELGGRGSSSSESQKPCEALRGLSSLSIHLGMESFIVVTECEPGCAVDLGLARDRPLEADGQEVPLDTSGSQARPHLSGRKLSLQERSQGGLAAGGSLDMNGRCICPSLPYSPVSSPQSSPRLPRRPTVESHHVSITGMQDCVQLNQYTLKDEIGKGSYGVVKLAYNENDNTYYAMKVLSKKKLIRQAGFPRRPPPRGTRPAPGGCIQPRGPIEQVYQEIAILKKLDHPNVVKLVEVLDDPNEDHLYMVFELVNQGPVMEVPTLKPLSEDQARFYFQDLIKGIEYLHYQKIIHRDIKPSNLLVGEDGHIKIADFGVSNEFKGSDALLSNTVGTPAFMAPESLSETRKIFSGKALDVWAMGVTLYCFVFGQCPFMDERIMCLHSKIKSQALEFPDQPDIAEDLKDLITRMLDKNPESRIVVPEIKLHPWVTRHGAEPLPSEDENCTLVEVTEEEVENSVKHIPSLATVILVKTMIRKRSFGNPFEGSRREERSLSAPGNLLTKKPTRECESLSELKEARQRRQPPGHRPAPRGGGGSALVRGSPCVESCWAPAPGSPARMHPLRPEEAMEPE
Sequence of AMPK (P54645 whole entry, looked up): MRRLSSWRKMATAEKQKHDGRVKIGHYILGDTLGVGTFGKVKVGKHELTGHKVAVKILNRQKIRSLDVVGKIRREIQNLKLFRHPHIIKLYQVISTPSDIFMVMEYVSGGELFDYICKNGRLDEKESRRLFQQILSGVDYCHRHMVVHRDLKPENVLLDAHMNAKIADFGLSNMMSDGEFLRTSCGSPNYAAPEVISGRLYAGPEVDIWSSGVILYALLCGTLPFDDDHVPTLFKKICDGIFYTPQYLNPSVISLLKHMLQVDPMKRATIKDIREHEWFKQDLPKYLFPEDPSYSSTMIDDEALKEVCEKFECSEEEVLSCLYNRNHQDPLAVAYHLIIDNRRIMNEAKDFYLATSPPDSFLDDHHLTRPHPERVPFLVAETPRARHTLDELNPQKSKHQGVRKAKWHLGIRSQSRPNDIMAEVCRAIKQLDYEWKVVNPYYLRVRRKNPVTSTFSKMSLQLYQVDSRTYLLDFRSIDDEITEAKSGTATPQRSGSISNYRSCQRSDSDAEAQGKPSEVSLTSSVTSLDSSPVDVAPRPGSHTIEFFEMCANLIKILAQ
Sequence of AMPK (P80386 whole entry partner, looked up): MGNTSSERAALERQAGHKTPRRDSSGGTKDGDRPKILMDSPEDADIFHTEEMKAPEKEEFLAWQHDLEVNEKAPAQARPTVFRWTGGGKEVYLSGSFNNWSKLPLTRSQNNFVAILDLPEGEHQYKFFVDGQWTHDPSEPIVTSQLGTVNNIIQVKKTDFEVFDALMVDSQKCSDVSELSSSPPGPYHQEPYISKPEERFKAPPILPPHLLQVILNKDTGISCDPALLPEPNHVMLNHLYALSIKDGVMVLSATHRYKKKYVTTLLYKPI
Sequence of AMPK (P80385 whole entry partner, looked up): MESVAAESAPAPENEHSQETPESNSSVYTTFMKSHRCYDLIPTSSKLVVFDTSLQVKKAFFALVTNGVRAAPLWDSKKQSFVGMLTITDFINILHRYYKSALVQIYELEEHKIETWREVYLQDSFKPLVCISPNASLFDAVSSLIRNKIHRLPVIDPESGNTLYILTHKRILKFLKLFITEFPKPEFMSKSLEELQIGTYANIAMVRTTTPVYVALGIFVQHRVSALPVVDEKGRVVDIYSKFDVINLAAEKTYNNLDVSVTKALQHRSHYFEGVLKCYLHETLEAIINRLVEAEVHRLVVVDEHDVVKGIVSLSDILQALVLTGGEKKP

On to `COC(=O)c1ccc2c(c1)/C(=C(/Nc1ccc(N(C)C(=O)CN3CCN(C)CC3)cc1)c1ccccc1)C(=O)N2` [Compound 17, Methyl(Z)-3-(((4-(N-methyl-2-(4-methylpiperazin-1-yl)acetamido)phenyl)amino)(phenyl)methylene)-2-oxoindoline-5-carboxylate], for which the Ki was 9.2 ± 1.7 nM in [1]; 11 ± 0.86 nM in test [2]; 7 ± 0.17 nM in test [3]; 31 ± 11 nM in test [4]; 3000 ± 1300 nM in test [5]. The “proliferation of HCC70 cells” value in test [6] was “clearly impacted”. In [7], the “proliferation of BT-549 cells” value is on record as “clearly impacted”. Moreover, the “proliferation of SUM-159 cells” value in test [8] is “clearly impacted”. Further, the “proliferation of MCF10A cells” value in test [9] was “little effect”; in test [9] (at 10 μM) it was “remained largely unaffected”.

Regarding `CN1CCN(CC(=O)N(C)c2ccc(N/C(=C3\C(=O)Nc4ccc(F)cc43)c3ccccc3)cc2)CC1` [Compound 19, (Z)—N-(4-(((5-Fluoro-2-oxoindolin-3-ylidene)(phenyl)methyl)amino)phenyl)-N-methyl-2-(4-methylpiperazin-1-yl)acetamide], the Ki in test [10] (Ki calculated using Equation 4, [ATP] = 40 μM, KM app (ATP) = 6 μM, read-out: Ki ± SE) is 3.1 nM and 0.68 nM. For the same compound, the IC50 in test [10] (indolinone derivatives, 40 μM ATP, read-out: IC50) worked out at 24 ± 4.7 nM. Moreover, the “proliferation of HCC70 cells” value in test [6] is reported as “inhibited all cell lines”. Further, the “proliferation of BT-549 cells” value in test [7] was “inhibited all cell lines”. The “proliferation of SUM-159 cells” value in test [8] is listed as “inhibited all cell lines”. Moreover, the “proliferation of MCF10A cells” value in test [9] is listed as “inhibited all cell lines”.
